PubChem BioAssay AID216 (DTP/NCI, 2004)
Where “and” joins values, the source holds several entries; their conditions need not be identical. Equal entries are not always repeated. Inconclusive results and toxic doses are left out.

System: BDF1 mice, P288 leukemia ip, survival T/C
Test: NCI In Vivo Anticancer Drug Screen. Data for tumor model P288 Lymphocytic Leukemia (intraperitoneal) in B6D2F1 (BDF1) mice
Details: endpoint: survival time, mean or median, higher = longer survival
Experimental: The antitumor activity of compounds was measured in mice bearing transplantable tumors. Survival or tumor size were measured and the results are expressed as the measurement made in the treated group (T) divided by the measurement made in the vehicle treated control group (C). The tumor model used in this assay is P288 Lymphocytic Leukemia (intraperitoneal) in B6D2F1 (BDF1) mice

[1] = dose: 25.0 mg/kg/injection, schedule: Q01DX010 (ip), vehicle: saline
[2] = dose: 50.0 mg/kg/injection, schedule: Q01DX010 (ip), vehicle: saline
[3] = dose: 100.0 mg/kg/injection, schedule: Q01DX010 (ip), vehicle: saline
[4] = dose: 200.0 mg/kg/injection, schedule: Q01DX010 (ip), vehicle: saline

In the case of CN(C)/N=N/c1nc[nH]c1C(N)=O, the T/C [1] is reported as 100 % of control, the T/C [2] is reported as 88 % of control and the T/C [3] is reported as 94 % of control and 100 % of control. For the same compound, the T/C [4] was 100 % of control.

For O=[n+]1c2c(n([O-])c3ccccc31)-c1cccc3cccc-2c13, the T/C [1] was 88 % of control, the T/C [2] was 94 % of control and 100 % of control and the T/C [3] was 100 % of control. For the same compound, the T/C [4] was 88 % of control and 100 % of control.

With CC(=O)[C@H]1CC[C@H]2[C@@H]3C[C@H](C)C4=CC(=O)CC[C@]4(C)[C@H]3C(=O)C[C@]12C the T/C (dose: 25.0 mg/kg/injection, schedule: Q01DX Z (sc), vehicle: steriod suspending solution) was 100 % of control, the T/C (dose: 50.0 mg/kg/injection, schedule: Q01DX Z (sc), vehicle: steriod suspending solution) was 108 % of control and the T/C (dose: 100.0 mg/kg/injection, schedule: Q01DX Z (sc), vehicle: steriod suspending solution) was 114 % of control. The T/C (dose: 200.0 mg/kg/injection, schedule: Q01DX Z (sc), vehicle: steriod suspending solution) was 104 % of control and 105 % of control, the T/C (dose: 400.0 mg/kg/injection, schedule: Q01DX Z (sc), vehicle: steriod suspending solution) was 110 % of control and the T/C (dose: 800.0 mg/kg/injection, schedule: Q01DX Z (sc), vehicle: steriod suspending solution) was 100 % of control.

NC(CCSCc1ccc(N(CCCl)CCCl)cc1)C(=O)O (centres undefined) was tested, and the T/C (dose: 4.5 mg/kg/injection, schedule: Q01DX010 (ip), vehicle: saline) was 88 % of control, the T/C (dose: 9.0 mg/kg/injection, schedule: Q01DX010 (ip), vehicle: saline) was 100 % of control and the T/C (dose: 18.0 mg/kg/injection, schedule: Q01DX010 (ip), vehicle: saline) was 88 % of control. The T/C (dose: 36.0 mg/kg/injection, schedule: Q01DX010 (ip), vehicle: saline) was 100 % of control, the T/C (dose: 54.0 mg/kg/injection, schedule: Q01DX010 (ip), vehicle: saline) was 161 % of control and the T/C (dose: 80.0 mg/kg/injection, schedule: Q01DX010 (ip), vehicle: saline) was 172 % of control.

In the case of COC12C(COC(N)=O)C3=C(C(=O)C(C)=C(N)C3=O)N1CC1C2N1C (centres undefined), the T/C (dose: 0.31 mg/kg/injection, schedule: Q01DX Z (ip), vehicle: carboxymethylcellulose (CMC)) is reported as 110 % of control, the T/C (dose: 0.63 mg/kg/injection, schedule: Q01DX Z (ip), vehicle: carboxymethylcellulose (CMC)) is reported as 120 % of control and the T/C (dose: 1.25 mg/kg/injection, schedule: Q01DX Z (ip), vehicle: carboxymethylcellulose (CMC)) is reported as 114 % of control. For the same compound, the T/C (dose: 5.0 mg/kg/injection, schedule: Q01DX Z (ip), vehicle: carboxymethylcellulose (CMC)) was 156 % of control, the T/C (dose: 10.0 mg/kg/injection, schedule: Q01DX Z (ip), vehicle: carboxymethylcellulose (CMC)) was 167 % of control and the T/C (dose: 20.0 mg/kg/injection, schedule: Q01DX Z (ip), vehicle: carboxymethylcellulose (CMC)) was 93 % of control.

In the case of CC(=O)NC1=C(N2CC2)C(=O)C(NC(C)=O)=C(N2CC2)C1=O, the T/C (dose: 0.25 mg/kg/injection, schedule: Q01DX010 (ip), vehicle: saline) is reported as 105 % of control, the T/C (dose: 0.5 mg/kg/injection, schedule: Q01DX010 (ip), vehicle: saline) is reported as 166 % of control and the T/C (dose: 1.0 mg/kg/injection, schedule: Q01DX010 (ip), vehicle: saline) is reported as 222 % of control. For the same compound, the T/C (dose: 2.0 mg/kg/injection, schedule: Q01DX010 (ip), vehicle: saline) was 111 % of control, the T/C (dose: 125.0 micrograms/kg/injection, schedule: Q01DX010 (ip), vehicle: saline) was 105 % of control and the T/C (dose: 250.0 micrograms/kg/injection, schedule: Q01DX010 (ip), vehicle: saline) was 100 % of control. The T/C (dose: 500.0 micrograms/kg/injection, schedule: Q01DX010 (ip), vehicle: saline) was 100 % of control and the T/C (dose: 1000.0 micrograms/kg/injection, schedule: Q01DX010 (ip), vehicle: saline) was 122 % of control.

With OCC1OC(n2cnc3c(=S)nc[nH]c32)C(O)C1O (centres undefined) the T/C (dose: 16.0 mg/kg/injection, schedule: Q01DX Z (ip), vehicle: carboxymethylcellulose (CMC)) was 94 % of control, the T/C (dose: 31.0 mg/kg/injection, schedule: Q01DX Z (ip), vehicle: carboxymethylcellulose (CMC)) was 94 % of control and the T/C (dose: 62.5 mg/kg/injection, schedule: Q01DX Z (ip), vehicle: carboxymethylcellulose (CMC)) was 109 % of control. For the same compound, the T/C (dose: 125.0 mg/kg/injection, schedule: Q01DX Z (ip), vehicle: carboxymethylcellulose (CMC)) was 97 % of control and the T/C (dose: 250.0 mg/kg/injection, schedule: Q01DX Z (ip), vehicle: carboxymethylcellulose (CMC)) was 92 % of control.
